{"source": "ChEMBL document CHEMBL1201862", "about": "“PubChem BioAssay data set” (2004)", "key": {"[1]": {"target": "T1, Voltage-gated N-type calcium channel alpha-1B subunit/Amyloid beta A4 precursor protein-binding family A member 1 (Homo sapiens, UniProt Q00975+Q02410)", "T1 sequence (Q00975 whole entry)": "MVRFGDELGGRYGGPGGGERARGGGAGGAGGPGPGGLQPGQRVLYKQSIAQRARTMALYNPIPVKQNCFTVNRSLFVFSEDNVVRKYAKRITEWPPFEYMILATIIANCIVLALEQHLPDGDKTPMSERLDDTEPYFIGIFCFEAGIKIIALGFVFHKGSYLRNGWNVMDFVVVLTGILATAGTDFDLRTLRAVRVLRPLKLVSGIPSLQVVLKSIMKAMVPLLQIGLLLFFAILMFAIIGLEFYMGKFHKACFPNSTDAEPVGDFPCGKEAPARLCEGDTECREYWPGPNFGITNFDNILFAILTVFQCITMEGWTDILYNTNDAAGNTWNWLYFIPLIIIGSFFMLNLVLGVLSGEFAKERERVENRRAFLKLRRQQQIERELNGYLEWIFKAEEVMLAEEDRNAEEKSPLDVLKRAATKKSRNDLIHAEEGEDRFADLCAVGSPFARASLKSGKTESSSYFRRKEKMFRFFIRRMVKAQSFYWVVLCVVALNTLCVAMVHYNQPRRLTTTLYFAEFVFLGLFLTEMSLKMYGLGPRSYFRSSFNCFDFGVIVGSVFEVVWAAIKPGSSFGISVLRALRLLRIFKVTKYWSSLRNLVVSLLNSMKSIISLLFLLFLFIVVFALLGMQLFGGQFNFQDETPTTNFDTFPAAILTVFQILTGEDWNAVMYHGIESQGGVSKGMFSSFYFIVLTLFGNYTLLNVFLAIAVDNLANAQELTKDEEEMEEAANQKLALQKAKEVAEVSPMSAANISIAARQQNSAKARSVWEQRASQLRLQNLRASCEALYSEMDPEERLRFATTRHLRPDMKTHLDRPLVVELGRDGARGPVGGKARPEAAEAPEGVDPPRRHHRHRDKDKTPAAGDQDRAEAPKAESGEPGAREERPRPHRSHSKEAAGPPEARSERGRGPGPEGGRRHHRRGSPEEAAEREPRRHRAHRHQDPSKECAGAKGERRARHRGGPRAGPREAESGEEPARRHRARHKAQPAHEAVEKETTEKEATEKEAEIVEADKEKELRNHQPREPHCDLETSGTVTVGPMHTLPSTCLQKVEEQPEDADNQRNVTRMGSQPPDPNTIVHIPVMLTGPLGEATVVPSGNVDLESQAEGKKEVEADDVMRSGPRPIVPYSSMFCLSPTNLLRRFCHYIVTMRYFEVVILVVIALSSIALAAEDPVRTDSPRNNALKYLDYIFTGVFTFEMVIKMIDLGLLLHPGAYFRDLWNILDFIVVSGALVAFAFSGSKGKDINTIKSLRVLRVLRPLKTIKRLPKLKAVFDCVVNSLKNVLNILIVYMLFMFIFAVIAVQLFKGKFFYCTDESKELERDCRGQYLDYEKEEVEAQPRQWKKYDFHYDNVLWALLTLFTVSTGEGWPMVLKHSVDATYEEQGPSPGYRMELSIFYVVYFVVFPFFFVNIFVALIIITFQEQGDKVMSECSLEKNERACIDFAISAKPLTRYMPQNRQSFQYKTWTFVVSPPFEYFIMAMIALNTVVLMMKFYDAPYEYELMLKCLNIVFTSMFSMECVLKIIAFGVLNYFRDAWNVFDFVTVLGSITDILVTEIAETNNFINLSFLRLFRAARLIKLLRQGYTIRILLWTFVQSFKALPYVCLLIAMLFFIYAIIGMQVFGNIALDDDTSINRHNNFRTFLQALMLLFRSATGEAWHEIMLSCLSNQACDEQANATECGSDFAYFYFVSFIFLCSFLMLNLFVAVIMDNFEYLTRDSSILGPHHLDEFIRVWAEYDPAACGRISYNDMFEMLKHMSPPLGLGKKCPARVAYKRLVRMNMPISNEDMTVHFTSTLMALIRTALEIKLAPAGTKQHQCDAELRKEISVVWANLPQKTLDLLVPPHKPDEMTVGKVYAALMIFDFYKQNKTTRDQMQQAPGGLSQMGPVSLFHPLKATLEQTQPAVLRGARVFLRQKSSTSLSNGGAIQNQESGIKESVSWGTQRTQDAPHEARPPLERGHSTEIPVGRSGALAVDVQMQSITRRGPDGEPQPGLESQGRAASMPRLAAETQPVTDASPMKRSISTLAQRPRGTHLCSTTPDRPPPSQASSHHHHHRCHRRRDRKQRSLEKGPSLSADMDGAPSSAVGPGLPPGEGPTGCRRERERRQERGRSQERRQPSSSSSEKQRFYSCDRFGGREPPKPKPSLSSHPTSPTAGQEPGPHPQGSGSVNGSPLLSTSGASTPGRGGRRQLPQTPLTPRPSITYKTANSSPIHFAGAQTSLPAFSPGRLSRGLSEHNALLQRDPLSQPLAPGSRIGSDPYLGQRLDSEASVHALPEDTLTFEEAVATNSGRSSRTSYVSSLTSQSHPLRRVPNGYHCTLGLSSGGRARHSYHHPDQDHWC", "T1 sequence (Q02410 whole entry)": "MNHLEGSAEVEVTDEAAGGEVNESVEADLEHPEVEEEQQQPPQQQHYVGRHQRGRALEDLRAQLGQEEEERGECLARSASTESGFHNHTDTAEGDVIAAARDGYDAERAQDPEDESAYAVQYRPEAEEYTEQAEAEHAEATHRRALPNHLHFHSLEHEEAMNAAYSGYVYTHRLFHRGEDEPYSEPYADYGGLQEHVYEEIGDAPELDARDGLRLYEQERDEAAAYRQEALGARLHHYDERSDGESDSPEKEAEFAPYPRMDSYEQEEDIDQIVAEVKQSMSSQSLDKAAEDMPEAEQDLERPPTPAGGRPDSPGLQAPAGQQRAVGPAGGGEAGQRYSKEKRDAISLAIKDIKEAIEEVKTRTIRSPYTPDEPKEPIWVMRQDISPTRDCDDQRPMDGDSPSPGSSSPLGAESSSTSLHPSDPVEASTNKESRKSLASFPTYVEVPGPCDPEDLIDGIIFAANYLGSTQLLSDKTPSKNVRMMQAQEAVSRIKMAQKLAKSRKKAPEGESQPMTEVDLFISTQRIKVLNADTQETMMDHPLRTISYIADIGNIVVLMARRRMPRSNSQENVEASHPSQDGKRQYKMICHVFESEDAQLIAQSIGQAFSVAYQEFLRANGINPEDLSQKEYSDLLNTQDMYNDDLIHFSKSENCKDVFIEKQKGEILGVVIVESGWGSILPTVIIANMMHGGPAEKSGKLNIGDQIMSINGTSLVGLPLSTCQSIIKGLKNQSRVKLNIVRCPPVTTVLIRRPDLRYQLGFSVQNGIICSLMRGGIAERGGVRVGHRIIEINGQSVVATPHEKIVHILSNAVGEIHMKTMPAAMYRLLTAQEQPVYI", "assay_type": "protein assay"}, "[2]": {"target": "T1, Voltage-gated N-type calcium channel alpha-1B subunit/Amyloid beta A4 precursor protein-binding family A member 1", "assay_type": "protein assay", "remark": "listed apart in the source"}, "[3]": {"assay": "luciferase reporter signal suppression in cells – H4 neuroglioma cells, luminescence, dose response (AID 1990)", "assay_type": "functional, cell-based"}, "[4]": {"assay": "Luminescence Cell-Based Dose Response HTS to Identify Inhibitors of 5'UTR Stem-Loop Driven Prion Protein mRNA Translation in H4 Neuroglioblastoma Cells. [Related pubchem assays: 1827 (Project Summary), 1813 (Primary HTS)]", "assay_type": "functional"}, "[5]": {"assay": "alpha-synuclein stem-loop luciferase translation blockers – H4 neuroglioma cells, luminescence, confirmation (AID 1988)", "assay_type": "functional, cell-based"}, "[6]": {"target": "T2, Microphthalmia-associated transcription factor (Homo sapiens, UniProt O75030)", "T2 sequence (O75030 whole entry)": "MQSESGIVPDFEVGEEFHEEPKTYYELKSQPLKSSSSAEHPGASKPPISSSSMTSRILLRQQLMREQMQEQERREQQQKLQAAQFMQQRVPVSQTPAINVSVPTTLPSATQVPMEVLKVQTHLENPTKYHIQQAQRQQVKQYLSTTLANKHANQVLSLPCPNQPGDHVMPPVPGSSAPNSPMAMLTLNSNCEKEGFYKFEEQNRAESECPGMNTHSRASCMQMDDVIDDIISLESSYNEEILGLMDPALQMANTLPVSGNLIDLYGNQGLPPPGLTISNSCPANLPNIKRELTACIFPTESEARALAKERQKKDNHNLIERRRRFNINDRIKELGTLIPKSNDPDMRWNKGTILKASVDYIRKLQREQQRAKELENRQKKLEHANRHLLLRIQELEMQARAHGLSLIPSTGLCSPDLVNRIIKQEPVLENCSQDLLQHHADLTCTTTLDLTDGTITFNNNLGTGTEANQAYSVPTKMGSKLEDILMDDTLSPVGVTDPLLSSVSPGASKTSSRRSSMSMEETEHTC", "assay": "reducers of TRPM1 reporter luminescence, concentration series – cell-based, SK-MEL-5, cherry-picked, set 3, MITF inhibitor project, dose response (AID 493073)", "assay_type": "functional"}, "[7]": {"assay": "A549 cell cytotoxicity, dose response, cytotoxicity control, plate reader, cherry-pick, antagonist series (AID 743412)", "assay_type": "functional, cell-based"}, "[8]": {"assay": "toxicity toward HepG2 liver cells – cell-based, plate reader, cherry-pick, antagonist series, cytotoxicity control, dose response (AID 743416)", "assay_type": "functional"}, "[9]": {"assay": "blockers of bursicon-stimulated LGR2 cAMP reporter – cell-based, HEK293, CRE-luciferase reporter, cherry pick, set 2, dose response (AID 743343);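 also: transfected cells were stimulated with diluted bursicon conditioned medium after compound addition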", "assay_type": "functional"}, "[10]": {"assay": "blockade of melanocortin 4 receptor signaling – cell-based, plate reader, cherry pick, counter-screen for LGR2 antagonist project, dose response (AID 743444);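 also: transfected HEK 293 cells stimulated with alpha-MSH peptide; potency of inhibitors of the alpha-MSH evoked signal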", "assay_type": "functional"}, "[11]": {"assay": "viability loss in HEK293 cells – cell-based, plate reader, cherry-picked samples, cytotoxicity control, dose response (AID 743446)", "assay_type": "functional"}, "Prothrombin": {"target": "Prothrombin (Homo sapiens, UniProt P00734)", "assay": "Thrombin 1536 HTS Dose Response Confirmation. [Related pubchem assays: 1046 (Thrombin 1536 HTS; hits were confirmed in this assay)]", "assay_type": "functional"}, "Ephrin type-A receptor 4": {"target": "Ephrin type-A receptor 4 (Mus musculus, UniProt Q03137)", "sequence (Q03137 whole entry)": "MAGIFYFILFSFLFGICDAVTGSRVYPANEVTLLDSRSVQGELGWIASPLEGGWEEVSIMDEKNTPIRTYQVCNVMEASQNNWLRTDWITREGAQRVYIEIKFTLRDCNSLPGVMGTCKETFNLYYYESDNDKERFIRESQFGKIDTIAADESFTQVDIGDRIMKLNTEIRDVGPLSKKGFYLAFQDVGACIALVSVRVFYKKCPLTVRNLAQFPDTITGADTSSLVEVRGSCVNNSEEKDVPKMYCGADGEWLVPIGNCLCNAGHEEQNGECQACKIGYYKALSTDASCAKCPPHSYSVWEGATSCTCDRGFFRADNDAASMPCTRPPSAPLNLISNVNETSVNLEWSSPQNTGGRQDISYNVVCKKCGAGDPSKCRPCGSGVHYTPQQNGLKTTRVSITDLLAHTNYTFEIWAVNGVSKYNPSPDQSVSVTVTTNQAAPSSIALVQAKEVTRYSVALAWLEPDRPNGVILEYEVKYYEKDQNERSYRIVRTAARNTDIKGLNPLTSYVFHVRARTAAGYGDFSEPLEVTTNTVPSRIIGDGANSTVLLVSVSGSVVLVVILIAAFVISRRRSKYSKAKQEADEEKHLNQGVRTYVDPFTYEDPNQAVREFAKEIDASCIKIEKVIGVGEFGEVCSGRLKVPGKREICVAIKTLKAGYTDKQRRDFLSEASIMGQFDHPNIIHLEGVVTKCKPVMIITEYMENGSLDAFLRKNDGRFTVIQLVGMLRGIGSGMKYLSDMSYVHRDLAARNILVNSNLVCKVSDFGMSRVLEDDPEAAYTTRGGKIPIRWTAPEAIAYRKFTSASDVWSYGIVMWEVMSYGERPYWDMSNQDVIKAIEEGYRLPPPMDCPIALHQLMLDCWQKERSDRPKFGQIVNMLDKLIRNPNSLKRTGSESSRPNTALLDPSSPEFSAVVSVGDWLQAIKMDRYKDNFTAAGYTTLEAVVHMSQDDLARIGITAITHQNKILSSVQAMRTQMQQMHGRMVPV", "assay": "EphA4 ligand-binding antagonists – biochemical, colorimetric, mouse EphA4, primary screen (AID 689)", "assay_type": "functional"}, "[12]": {"assay": "blockers of HIV-1 envelope-mediated cell-cell fusion – cherry-pick, dose response (AID 652057)", "assay_type": "functional, cell-based"}, "[13]": {"assay": "viability loss in CEM21 cells – cell-based, CellTiter-Glo luminescence, cherry-picked, cytotoxicity control for viral fusion inhibitor project, dose response (AID 652042);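 also: potency for signal decrease meaning cytotoxicity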", "assay_type": "functional"}, "[14]": {"assay": "blockers of HIV-1 ZM109 envelope-driven cell-cell fusion – HeLa effector, CEM target cells, luciferase, cherry-pick, dose response (AID 652058)", "assay_type": "functional, cell-based"}, "[15]": {"assay": "off-target signal loss in HeLa-CEM21 co-culture – HeLa F-luc CTL cells, cherry-picked, counter-screen for HIV-1 Env fusion inhibitor project, dose response (AID 652040);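 also: potency for signal decrease marking cytotoxic or nonspecific inhibition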", "assay_type": "functional, cell-based"}, "[16]": {"assay": "HIV-1 AD8 envelope cell-cell fusion blockers – cherry-pick, dose response (AID 652062);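 also: potency is for inhibitors of fusion seen as a drop in luminescence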", "assay_type": "functional, cell-based"}, "[17]": {"assay": "intracellular Trypanosoma cruzi inhibitors in host cells – cell-based, plate reader, cherry-pick samples, set 3, dose response (AID 651818);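 also: compounds incubated with infected cells for about four days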", "assay_type": "functional"}, "cells [18]": {"assay": "cells", "assay_type": "functional, cell-based"}, "[19]": {"target": "T3, Trace amine-associated receptor 1 (Homo sapiens, UniProt Q96RJ0)", "T3 sequence (Q96RJ0 whole entry)": "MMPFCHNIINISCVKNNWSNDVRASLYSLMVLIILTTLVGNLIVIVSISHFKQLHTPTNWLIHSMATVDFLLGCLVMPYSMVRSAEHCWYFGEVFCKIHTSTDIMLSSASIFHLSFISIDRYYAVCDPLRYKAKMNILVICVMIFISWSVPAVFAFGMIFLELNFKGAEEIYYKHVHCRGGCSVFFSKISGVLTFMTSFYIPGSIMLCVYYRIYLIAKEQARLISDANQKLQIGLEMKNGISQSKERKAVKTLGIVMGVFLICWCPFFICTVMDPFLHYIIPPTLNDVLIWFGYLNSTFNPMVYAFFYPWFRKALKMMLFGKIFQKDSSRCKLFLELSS", "assay": "Fluorescence-based cell-based high throughput dose response assay to identify agonists of the human trace amine associated receptor 1 (TAAR1).", "assay_type": "functional"}, "[20]": {"target": "T3, Trace amine-associated receptor 1", "assay": "Counterscreen for agonists of the human trace amine associated receptor 1 (hTAAR1): Fluorescence-based cell-based high throughput dose response assay to identify hTAAR1 agonist that also desensitize TAAR1 receptor response.", "assay_type": "functional"}, "cells [21]": {"assay": "cells", "assay_type": "functional, cell-based", "remark": "listed apart in the source"}, "Paired box protein Pax-8": {"target": "Paired box protein Pax-8 (Homo sapiens, UniProt Q06710)", "sequence (Q06710 whole entry)": "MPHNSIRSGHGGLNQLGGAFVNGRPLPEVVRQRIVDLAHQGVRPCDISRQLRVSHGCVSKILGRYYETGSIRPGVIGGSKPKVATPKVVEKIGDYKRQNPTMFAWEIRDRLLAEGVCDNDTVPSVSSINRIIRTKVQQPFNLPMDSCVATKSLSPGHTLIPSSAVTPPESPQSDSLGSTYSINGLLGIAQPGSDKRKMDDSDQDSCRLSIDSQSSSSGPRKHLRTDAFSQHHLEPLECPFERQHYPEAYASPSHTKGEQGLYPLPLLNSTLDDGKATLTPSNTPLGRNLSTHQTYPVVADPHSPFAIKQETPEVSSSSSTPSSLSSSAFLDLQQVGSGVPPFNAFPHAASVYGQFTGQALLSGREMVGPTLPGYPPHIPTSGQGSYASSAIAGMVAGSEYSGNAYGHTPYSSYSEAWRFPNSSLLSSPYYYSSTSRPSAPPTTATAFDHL", "assay": "PAX8 transcriptional activity inhibition in RMG-I – RMG-I cells, luciferase, cherry-pick, dose response (AID 687027);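 also: luciferase reporter driven by Pax8 target thyroperoxidase promoter measured by SteadyGlo luminescence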", "assay_type": "functional, cell-based"}, "[22]": {"assay": "OVCAR-3 cell viability loss – plate reader, dry powder samples, PAX8 inhibitor project, dose response (AID 743044)", "assay_type": "functional, cell-based"}, "[23]": {"assay": "IGROV1 cell killing – plate reader, dry powder samples, PAX8 inhibitor project, dose response (AID 743043)", "assay_type": "functional, cell-based", "settings": "IGROV-1"}, "[24]": {"assay": "OVCAR8 cell viability loss – plate reader, dry powder samples, PAX8 project, dose response (AID 743197)", "assay_type": "functional, cell-based", "settings": "OVCAR-8"}}, "note": "Calls of active or inactive are those of the source.", "data": [{"compound": "Cc1ccc2[nH]c(=O)c(C=C3C(=O)NC(=S)NC3=O)cc2c1", "values": [{"measurement": "IC50", "setting": "[1]", "value": "9.32 µM (active)"}, {"measurement": "IC50", "setting": "[2]", "value": "42.1 µM (active)"}]}, {"compound": "O=c1c2ccccc2cnn1CCOc1ccccc1", "values": [{"measurement": "EC50", "setting": "[3]", "value": "4.07 µM (active)"}, {"measurement": "EC50", "setting": "[4]", "value": "0.392 µM (active)"}, {"measurement": "EC50", "setting": "[5]", "value": "1.97 µM (active)"}, {"measurement": "AC50", "setting": "[6]", "value": "7.2 µM (active)"}, {"measurement": "AC50", "setting": "[7]", "value": "45.5 µM (active)"}, {"measurement": "AC50", "setting": "[8]", "value": "> 52 µM (inactive)"}, {"measurement": "AC50", "setting": "[9]", "value": "2.52 µM (active)"}, {"measurement": "AC50", "setting": "[10]", "value": "2.62 µM (active)"}, {"measurement": "AC50", "setting": "[11]", "value": "48.8 µM (active)"}]}, {"compound": "O=C(COC(=O)CCOc1ccccc1)Nc1ccc(Cl)cn1", "values": [{"measurement": "IC50", "setting": "Prothrombin", "value": "30.8 µM (active)"}]}, {"compound": "CC1=N/C(=C\\c2ccc([N+](=O)[O-])cc2)C(=O)N1c1cc(Cl)ccc1C", "values": [{"measurement": "IC50", "setting": "Ephrin type-A receptor 4", "value": "3.45 µM (active)"}]}, {"compound": "COc1ccc(CC(=O)n2nc(-c3cccnc3)nc2N)cc1", "values": [{"measurement": "IC50", "setting": "Prothrombin", "value": "0.259 µM (active)"}]}, {"compound": "CC(C)c1ccc(N(C(=O)c2csnn2)C(C(=O)NC2CCCC2)c2ccncc2)cc1", "note": "(configuration not stated)", "values": [{"measurement": "AC50", "setting": "[12]", "value": "0.795 µM (active)"}, {"measurement": "AC50", "setting": "[13]", "value": "60.5 µM (active)"}, {"measurement": "AC50", "setting": "[14]", "value": "0.654 µM (active)"}, {"measurement": "AC50", "setting": "[15]", "value": "1.59 µM (active)"}, {"measurement": "AC50", "setting": "[16]", "value": "1.76 µM (active)"}]}, {"compound": "O=C(CN1CCN(C(=O)CNC(=O)c2ccc(-c3ccccc3)cc2)CC1)Nc1ccccc1Cl", "values": [{"measurement": "AC50", "setting": "[7]", "value": "24.9 µM (active)"}, {"measurement": "AC50", "setting": "[8]", "value": "31.7 µM (active)"}, {"measurement": "AC50", "setting": "[9]", "value": "43.4 µM (active)"}, {"measurement": "AC50", "setting": "[10]", "value": "48.1 µM (active)"}, {"measurement": "AC50", "setting": "[11]", "value": "30.1 µM (active)"}]}, {"compound": "C[C@H](CO)N1C[C@H](C)[C@H](CN(C)Cc2ccc(C(F)(F)F)cc2)Oc2ccc(NC(=O)Nc3ccc(F)cc3)cc2C1=O", "values": [{"measurement": "AC50", "setting": "[17]", "value": "5.6 µM (active)"}, {"measurement": "AC50", "setting": "[7]", "value": "23.1 µM (active)"}, {"measurement": "AC50", "setting": "[8]", "value": "28 µM (active)"}, {"measurement": "AC50", "setting": "[9]", "value": "33.1 µM (active)"}, {"measurement": "AC50", "setting": "[10]", "value": "26.4 µM (active)"}]}, {"compound": "COc1ccccc1CCn1cnc(-c2ccc(Br)cc2)c1CC(C)C", "values": [{"measurement": "IC50", "setting": "cells [18]", "value": "25.7 µM (inactive)"}, {"measurement": "EC50", "setting": "[19]", "value": "1.75 µM (active)"}, {"measurement": "IC50", "setting": "[20]", "value": "7.08 µM (active)"}, {"measurement": "EC50", "setting": "cells [21]", "value": "> 29.9 µM (inactive)"}]}, {"compound": "C[C@@H]1CN([C@@H](C)CO)C(=O)Cc2cc(NS(=O)(=O)c3ccc(F)cc3)ccc2O[C@H]1CN(C)Cc1ccc(C(F)(F)F)cc1", "values": [{"measurement": "AC50", "setting": "Paired box protein Pax-8", "value": "4.76 µM (active)"}, {"measurement": "AC50", "setting": "[22]", "value": "19.7 µM (active)"}, {"measurement": "AC50", "setting": "[23]", "value": "29.2 µM (active)"}, {"measurement": "AC50", "setting": "[24]", "value": "26.9 µM (active)"}]}, {"compound": "O=C(C[C@H]1C[C@@H]2c3cc(NC(=O)Nc4ccc(C(F)(F)F)cc4)ccc3O[C@@H]2[C@@H](CO)O1)NCc1ccc(Cl)cc1", "values": [{"measurement": "AC50", "setting": "Paired box protein Pax-8", "value": "7.85 µM (active)"}, {"measurement": "AC50", "setting": "[22]", "value": "61.1 µM (active)"}, {"measurement": "AC50", "setting": "[23]", "value": "40.9 µM (active)"}]}, {"compound": "CCOc1ccc(C(=O)Nc2ccc(-c3nc4ccccc4[nH]3)cc2)cc1[N+](=O)[O-]", "values": [{"measurement": "IC50", "setting": "[1]", "value": "12.2 µM (active)"}, {"measurement": "IC50", "setting": "[2]", "value": "> 50 µM (inactive)"}]}]}
